From patent US6794396B2, “Substituted pyridines useful for inhibiting cholesteryl ester transfer protein activity” (Pharmacia Corporation, priority 1998, dated 2004)

Biological target: T1, CETP in human plasma or serum pool (Homo sapiens, UniProt P11597)
T1 construct: from tissue; host or cells: pooled human EDTA plasma or serum from healthy volunteers
T1 sequence (P11597 18-493): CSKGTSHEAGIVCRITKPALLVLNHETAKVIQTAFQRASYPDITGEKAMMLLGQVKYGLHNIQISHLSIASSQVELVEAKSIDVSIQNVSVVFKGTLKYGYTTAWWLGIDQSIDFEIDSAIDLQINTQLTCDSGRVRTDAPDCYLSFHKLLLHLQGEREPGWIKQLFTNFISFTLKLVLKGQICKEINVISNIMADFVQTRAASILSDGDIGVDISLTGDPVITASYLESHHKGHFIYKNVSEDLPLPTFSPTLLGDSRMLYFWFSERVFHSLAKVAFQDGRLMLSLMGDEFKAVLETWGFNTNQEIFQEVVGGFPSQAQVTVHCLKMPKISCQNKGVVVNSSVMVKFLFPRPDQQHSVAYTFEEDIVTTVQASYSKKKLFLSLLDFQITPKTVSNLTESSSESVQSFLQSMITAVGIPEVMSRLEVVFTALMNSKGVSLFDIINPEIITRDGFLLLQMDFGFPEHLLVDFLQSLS
Test: Whole serum CETP activity assay (tritiated cholesterol ester)
Format: biochemical
Settings: 4 hours at 37° C.
Protocol: Blood was obtained from healthy volunteers recruited from the personnel of Monsanto Company, Saint Louis, Mo. Blood was either collected in tubes containing EDTA (EDTA plasma pool) or in tubes without EDTA (spun to form the serum pool). The EDTA human plasma pool or human serum pool, previously stored at −20° C., was thawed at room temperature, and centrifuged for 5 minutes to remove any particulate matter. Tritiated HDL, radiolabeled in the cholesteryl ester moiety ([^3H]CE-HDL) as described by Morton and Zilversmit (J. Biol. Chem., 256, 11992-95 (1981) which is incorporated by reference herein), was added to the plasma or serum to a final concentration of (25 μg/ml cholesterol).
Inhibitor compounds were added to the plasma or serum as follows: Equal volumes of the plasma or serum containing the [^3H]CE-HDL (396 μl) were pipetted into micro tubes (Titertube®, Bio-Rad Laboratories, Hercules, Calif.). Compounds, usually dissolved as 20-50 mM stock solutions in DMSO, were serially diluted in DMSO (or an alternative solvent in some cases, such as dimethylformamide or ethanol). Four μl of each of the serial dilutions of inhibitor compounds or DMSO alone were then added to each of the plasma or serum tubes. The tubes were immediately mixed. Triplicate aliquots (100 μl) from each plasma or serum tube were then transferred to wells of 96-well round-bottomed polystyrene microtiter plates (Corning, Corning, N.Y.). Plates were sealed with plastic film and incubated at 37° C. for 4 hours.
Test wells contained plasma or serum with dilutions of inhibitor compounds. Control wells contained plasma or serum with DMSO alone. Blank wells contained plasma or serum with DMSO alone that were left in the micro tubes at 4° C. for the 4 hour incubation and were added to the microtiter wells at the end of the incubation period. VLDL and LDL were precipitated by the addition of 10 μl of precipitating reagent (1% (w/v) Dextran Sulfate (Dextralip50)/0.5M magnesium chloride, pH 7.4) to all wells. The wells were mixed on a plate mixer and then incubated at ambient temperature for 10 min. The plates were then centrifuged at 1000×g for 30 mins at 10° C. The supernatants (50 μl) from each well were then transferred to Picoplate™ 96 plate wells (Packard, Meriden, Conn.) containing […] Microscint™-40 (Packard, Meriden, Conn.). The plates were heat-sealed (TopSeal™-P, Packard, Meriden, Conn.) according to the manufacturers directions and mixed for 30 min.
Radioactivity was measured on a microplate scintillation counter (TopCount, Packard, Meriden, Conn.). […] The maximum percent transfer (in the control wells) was determined using the following equation: [formula]
The percent of control transfer determined in the wells containing inhibitor compounds was determined as follows: [formula]
IC50 values were then calculated from plots of % control versus concentration of inhibitor compound.

IC50 whole serum CETP activity: 16 µM
Compound: COC(=O)c1c(C(F)F)nc(C(F)(F)F)c(SSc2c(C(F)(F)F)nc(C(F)F)c(C(=O)OC)c2CC(C)C)c1CC(C)C [Compound 181, Dimethyl 5,5′-Dithiobis[2-(difluoromethyl)-4-(2-methylpropyl)-6-(trifluoromethyl)-3-pyridinecarboxylate]]
